In EP2608671B1, “COMPOUNDS FOR TREATMENT OF CANCER” (Gtx, Inc., priority 2010, dated 2012) one finds IC50 data, which are given here for 15 compounds.

Molecules are shown by their SMILES. Read-outs that look alike come from different tables or passages of the source.

The test system of assay [1] is WM-164. The experiment in a line: SRB cell growth inhibition (cytotoxicity) assay. As to conditions: Homo sapiens. It counts as cell-based, human.
For assay [2], the system named is A375. The experiment in a line: SRB cell growth inhibition (cytotoxicity) assay. The format is cell-based, human. As to conditions: Homo sapiens.
Assay [3] has as its system DU 145. The experiment in a line: cells. The conditions noted are these: Homo sapiens.
In assay [4] the test system is PC-3. The experiment in a line: cells. As to conditions: Homo sapiens. From the text: (§1) The only compounds which belong to the invention are the ones falling under the scope of formula (XI).
Cells were stained with SRB solution.
Cells. […] Cells between the third and fifth passages were used for experiments.
Cell growth inhibition studies. […] Cells were stained with sulphorhodamine B (SRB) solution.

Assay [5] concerns B16-F1. The experiment in a line: SRB cell growth inhibition (cytotoxicity) assay. The format is cell-based, mouse. As to conditions: Mus musculus.
From the text: as §1

Assay [6] deals with LNCaP. Put plainly: cells. The conditions noted are these: Homo sapiens.
The test system of assay [7] is PPC-1. The experiment in a line: cells. The conditions noted are these: Homo sapiens.
Setting [8] is: WM164, SRB, 48 h, Tables 11, 12, read-out: IC50 (nM), WM164.
The mark [9] stands for this setting: A-375, SRB, 48 h, Table 11, read-out: IC50 (nM), A375.
Setting [10] is: DU-145, 96 h, read-out: IC50 (nM), Du 145.
Where [11] appears, read: PC-3, 96 h, read-out: IC50 (nM), PC-3.
Setting [12] is: B16-F1, SRB, 48 h, Table 11, read-out: IC50 (nM), B16-F1.
Where [13] appears, read: 96 h, read-out: IC50 (nM), LNCaP.
The mark [14] stands for this setting: PPC-1, 96 h, read-out: IC50 (nM), PPC-1.
[15] abbreviates: WM164 melanoma cells, 48 h, SRB, read-out: IC50 ± SEM (nM) WM164.
Where [16] appears, read: A-375, A375 melanoma cells, 48 h, SRB, read-out: IC50 ± SEM (nM) A375.
Setting [17] is: DU-145, 96 h, read-out: IC50 ± SEM (nM) Du 145.
Where [18] appears, read: PC-3, 96 h, read-out: IC50 ± SEM (nM), PC-3.
The mark [19] stands for this setting: B16-F1 melanoma cells, 48 h, SRB, read-out: IC50 ± SEM (nM) B16-F1.
[20] abbreviates: 96 h, read-out: IC50 ± SEM (nM), LNCaP.
Where [21] appears, read: PPC-1, 96 h, read-out: IC50 ± SEM (nM), PPC-1.
[22] abbreviates: WM164, read-out: IC50 (nM), WM164.
The mark [23] stands for this setting: A-375, read-out: IC50 (nM), A375.
Where [24] appears, read: DU-145, read-out: IC50 (nM), DU 145.
[25] abbreviates: PC-3, read-out: IC50 (nM), PC-3.
Setting [26] is: B16-F1, read-out: IC50 (nM), B16-F1.
The mark [27] stands for this setting: PPC-1, read-out: IC50 (nM), PPC-1.

For the compound `COc1cccc(C(=O)c2c[nH]c(-c3ccccc3)n2)c1` [12ac, (3-methoxyphenyl)(2-phenyl-1H-imidazol-4-yl)methanone], the IC50 in assay [1] (setting [8]), in assay [2] (setting [9]), in assay [3] (setting [10]), in assay [4] (setting [11]), in assay [5] (setting [12]) and in assay [6] (setting [13]) was above 10000 nM in each case. Moreover, the IC50 (commonly the midpoint of a concentration-inhibition curve) in assay [7] (setting [14]) is above 10000 nM.
For `COc1cc(OC)cc(C(=O)c2c[nH]c(-c3ccccc3)n2)c1` [12ad, (3,5-dimethoxyphenyl)(2-phenyl-1 H-imidazol-4-yl)methanone], the half-maximal inhibitory concentration (IC50) in assay [1] (setting [8]) amounted to 2100 nM; in assay [2] (setting [9]), 2800 nM; in assay [3] (setting [10]) it was 2590 nM; in assay [4] (setting [11]) it was 3270 nM; in assay [5] (setting [12]) it was 5400 nM; in assay [6] (setting [13]) it was 3610 nM. For the same compound, in assay [7] (setting [14]), the IC50 was 2130 nM.
With `O=C(c1ccc(F)cc1)c1c[nH]c(-c2ccccc2)n1` [12af, (4-fluorophenyl)(2-phenyl-1H-imidazol-4-yl)methanone], the IC50 was 630 nM in assay [1] (setting [8]); 580 nM in assay [2] (setting [9]); 846 nM in assay [3] (setting [10]); 2200 nM in assay [4] (setting [11]); 930 nM in assay [5] (setting [12]); 613 nM in assay [6] (setting [13]). In addition, the IC50 in assay [7] (setting [14]) was determined as 575 nM.
Take `Cc1ccc(C(=O)c2c[nH]c(-c3ccccc3)n2)cc1` [12ah, (2-phenyl-1H-imidazol-4-yl)(p-tolyl)methanone]: the 50% inhibitory concentration (IC50) in assay [1] (setting [8]), in assay [2] (setting [9]), in assay [3] (setting [10]), in assay [4] (setting [11]), in assay [5] (setting [12]) and in assay [6] (setting [13]) was above 10000 nM each time. In addition, in assay [7] (setting [14]), the IC50 was above 10000 nM.
For `Cc1cccc(C(=O)c2c[nH]c(-c3ccccc3)n2)c1` [12ai, (2-phenyl-1H-imidazol-4-yl)(m-tolyl)methanone], the half-maximal inhibitory concentration (IC50) in assay [1] (setting [8]), in assay [2] (setting [9]), in assay [3] (setting [10]), in assay [4] (setting [11]), in assay [5] (setting [12]) and in assay [6] (setting [13]) was above 10000 nM throughout. In addition, the IC50 in assay [7] (setting [14]) is above 10000 nM.
With `COc1ccc(-c2nc(C(=O)c3ccc(F)cc3)cn2C)cc1` [12cba, (4-fluorophenyl)(2-(4-methoxyphenyl)-1-methyl-1H-imidazol-4-yl)methanone], the IC50 in assay [1] (setting [15]), in assay [2] (setting [16]), in assay [3] (setting [17]), in assay [4] (setting [18]), in assay [5] (setting [19]) and in assay [6] (setting [20]) was above 10000 nM each time. In addition, the IC50 in assay [7] (setting [21]) is above 10000 nM.
`COc1cc(C(=O)c2cn(C)c(-c3ccc(C)cc3)n2)cc(OC)c1OC` [12dab, (1-methyl-2-(p-tolyl)-1H-imidazol-4-yl)(3,4,5-trimethoxyphenyl)methanone]: the IC50 in assay [1] (WM164, 48 h, read-out: IC50 ± SEM (nM) WM164) worked out at 40 nM; in assay [2] (A-375, 48 h, read-out: IC50 ± SEM (nM) A375), 32 nM; in assay [3] (setting [17]) it was 36 nM; in assay [4] (setting [18]), 46 nM; in assay [5] (B16-F1, 48 h, read-out: IC50 ± SEM (nM) B16-F1) it was 134 nM; in assay [6] (setting [20]) it was 32 nM. In assay [7] (setting [21]), the half-inhibitory concentration (IC50) was determined as 28 nM.
As to `COc1cc(C(=O)c2c[nH]c(-c3ccc(C)cc3)n2)cc(OC)c1O` [12dc, (4-hydroxy-3,5-dimethoxyphenyl)(2-(p-tolyl)-1H-imidazol-4-yl)methanone], the half-maximal inhibitory concentration (IC50) in assay [1] (setting [15]) was 123 nM; in assay [2] (setting [16]) it was 105 nM; in assay [3] (setting [17]), 174 nM; in assay [4] (setting [18]) it was 127 nM; in assay [5] (setting [19]) it was 387 nM; in assay [6] (setting [20]), 134 nM. In addition, in assay [7] (setting [21]), the IC50 turned out to be 110 nM.
For the compound `COc1ccc(S(=O)(=O)n2cc(C(=O)c3ccc(F)cc3)nc2-c2ccc(N(C)C)cc2)cc1` [12gba, (2-(4-(dimethylamino)phenyl)-1-((4-methoxyphenyl)sulfonyl)-1H-imidazol-4-yl)(4-fluorophenyl)methanone], the IC50 is around 100 nM in assay [1] (setting [15]); around 100 nM in assay [2] (setting [16]); 129 nM in assay [3] (setting [17]); 44.1 nM in assay [4] (setting [18]); around 100 nM in assay [5] (setting [19]); 73.2 nM in assay [6] (setting [20]). Besides, in assay [7] (setting [21]), the IC50 came to 63.4 nM.
As for `COc1cc(C(=O)c2c[nH]c(-c3ccc(Br)cc3)n2)cc(OC)c1OC` [12la, (2-(4-bromophenyl)-1H-imidazol-4-yl)(3,4,5-trimethoxyphenyl)methanone], the half-maximal inhibitory concentration (IC50) in assay [1] (setting [15]) was found to be 36 nM; in assay [2] (setting [16]) it was 32 nM; in assay [3] (setting [17]), 49 nM; in assay [4] (setting [18]) it was 36 nM; in assay [5] (setting [19]), 74 nM; in assay [6] (setting [20]), 34 nM. In assay [7] (setting [21]), the IC50 was 33 nM.
With `COc1cc(C(=O)c2c[nH]c(-c3ccc(C(F)(F)F)cc3)n2)cc(OC)c1OC` [12pa, (2-(4-(trifluoromethyl)phenyl)-1H-imidazol-4-yl)(3,4,5-trimethoxyphenyl)methanone], the IC50 in assay [1] (setting [15]) is 175 nM; in assay [2] (setting [16]) it was 163 nM; in assay [3] (setting [17]) it was 174 nM; in assay [4] (setting [18]) it was 127 nM; in assay [5] (setting [19]), 469 nM; in assay [6] (setting [20]), 134 nM. The IC50 in assay [7] (setting [21]) stood at 110 nM.
For the compound `O=C(c1cc(O)c(O)c(O)c1)c1c[nH]c(-c2cc(O)c(O)c(O)c2)n1` [13ea, (3,4,5-trihydroxyphenyl)(2-(3,4,5-trihydroxyphenyl)-1H-imidazol-4-yl)methanone], the half-inhibitory concentration (IC50) in assay [1] (setting [15]), in assay [2] (setting [16]), in assay [3] (setting [17]), in assay [4] (setting [18]), in assay [5] (setting [19]) and in assay [6] (setting [20]) was above 10000 nM in each case. Moreover, the IC50 in assay [7] (setting [21]) was above 10000 nM.
Turning to `COc1cc(C(=O)c2c[nH]c(-c3ccc4[nH]c(C(=O)c5cc(OC)c(OC)c(OC)c5)cc4c3)n2)cc(OC)c1OC` [15xaa, (5-(4-(3,4,5-Trimethoxybenzoyl)-1H-imidazol-2-yl)-1H-indol-2-yl)(3,4,5-trimethoxyphenyl)methanone], the IC50 in assay [1] (setting [22]) is 1700 nM; in assay [2] (setting [23]), 1800 nM; in assay [3] (setting [24]), 5920 nM; in assay [4] (setting [25]), 2630 nM; in assay [5] (setting [26]), 1390 nM; in assay [6] (read-out: IC50 (nM), LNCaP) it was 1070 nM. Also, the IC50 in assay [7] (setting [27]) was 4580 nM.
Consider `COc1cc(C(=O)c2cn(S(=O)(=O)c3ccccc3)c(-c3ccc4c(c3)cc(C(=O)c3cc(OC)c(OC)c(OC)c3)n4S(=O)(=O)c3ccccc3)n2)cc(OC)c1OC` [16xaa, (1-(Phenylsulfonyl)-2-(1-(phenylsulfonyl)-2-(3,4,5-trimethoxybenzoyl)-1H-indol-5-yl)-1H-imidazol-4-yl)(3,4,5-trimethoxyphenyl)methanone], for which the 50% inhibitory concentration (IC50) in assay [1] (setting [22]) was above 10000 nM; in assay [2] (setting [23]) it was above 10000 nM; in assay [3] (setting [24]), above 10000 nM; in assay [4] (setting [25]), above 10000 nM; in assay [5] (setting [26]), above 10000 nM; in assay [6] (read-out: IC50 (nM), LNCaP) it was above 10000 nM. Moreover, the IC50 in assay [7] (setting [27]) was above 10000 nM.
On to `O=C(c1csc(-c2cc3ccccc3[nH]2)n1)c1cc2ccccc2[nH]1` [compound 8, (2-(1H-Indol-2-yl)thiazol-4-yl)(1H-indol-2-yl)methanone], for which the IC50 in assay [1] (WM164, Table 6A, read-out: IC50 (nM), WM164) was 404 nM; in assay [2] (A-375, Table 6A, read-out: IC50 (nM), A375), 318 nM; in assay [3] (setting [24]), 580 nM; in assay [4] (setting [25]), 704 nM; in assay [5] (B16-F1, Table 6A, read-out: IC50 (nM), B16-F1), 570 nM; in assay [6] (read-out: IC50 (nM), LNCaP), 346 nM. Moreover, in assay [7] (setting [27]), the 50% inhibitory concentration (IC50) stood at 230 nM.
